Consider two substances from patent US20130065227A1, “METHODS OF INCREASING MACROPINOCYTOSIS IN CANCER CELLS” (priority 2010, published 2013).

Series [1] deals with cancer cells (DU145, HeLa, MDA-MB-231) and non-malignant Hs27 skin fibroblasts. The series can be described thus: Temperature-dependence of oligonucleotide uptake by flow cytometry. Type of series: cell-based. As to conditions: 10 μM, 37° C. or 4° C. for 2 h, all cell types. As for the experimental part: FIG. 1 are graphs showing that AS1411 cell internalization is an active process. Cells were plated 18 h before uptake analysis. After incubation as described, cells were washed with ice-cold PBS, incubated with 1 μg/ml 7-AAD, harvested and resuspended in 1% paraformaldehyde containing 2 μg/ml actinomycin D, then analyzed by flow cytometry. (Panel A) DU145 cells were incubated at 37° C. with fresh complete DMEM medium containing 10 μM FL-AS1411 (black line) or 10 μM FL-CRO (gray line) for the time indicated. (Panel B) DU145 cells were incubated for 2 h at 37° C. in complete or serum-free DMEM medium containing 10 μM FL-AS1411, or 10 μM FL-CRO, or no oligonucleotide. (Panel C) Various cell lines were incubated with 10 μM FL-AS1411 (black outline histogram), 10 μM FL-CRO (gray outline histogram) or without DNA (solid gray histogram) at 37° C. or 4° C. for 2 h. All experiments were repeated at least three times. Data are mean of three independent samples; bars, SE; *(p<0.05). […]
To determine whether AS1411 uptake occurs through an active uptake process, the temperature-dependence of AS1411 uptake in cancer cells (DU145, HeLa, MDA-MB-231) and non-malignant Hs27 skin fibroblasts was evaluated using flow cytometry. […]

The next series deals with Hs27. The series can be described thus: Uptake of AS1411 by macropinocytosis (MP). Type of series: cell-based, human. The conditions noted are these: Non-cancer, skin fibroblasts. On the procedure: FIG. 2 are graphs showing that AS1411 is internalized by different endocytic mechanisms in DU145 cancer cells and in non-malignant Hs27 cells. DU145 or Hs27 cells were plated 18 h before uptake analysis. Cells were pre-treated as described with inhibitor (gray histogram) or the corresponding vehicle control (black histogram) before addition of 10 μM FL-AS1411 and incubation at 37° C. for 2 h. After incubation, cells were harvested and analyzed by flow cytometry. Pre-treatment conditions were at 37° C. with: (Panel A) 5 μM Cytochalasin D for 30 min; (Panel B) 80 μM Dynasore for 30 min; or (Panel C) 3 mM amiloride for 1 h. All experiments were repeated at least three times and representative data are shown. Solid gray histograms represent background autofluorescence of unstained cells.
To analyze uptake of the oligodeoxynucleotides or dextran-10K (macropinocytic marker) by flow cytometry, 2×10^5 cells in fresh supplemented culture medium (2.5 ml) were plated into 6-well plates for 18 h. After complete adhesion, the cells were incubated with 5′-FAM tagged oligodeoxynucleotides or Alexa Fluor 488 tagged dextran-10K and incubated as indicated in the Description of the Drawings. Cells were washed once with ice-cold PBS, incubated with 1 μg/ml 7-amino-actinomycin D (7-AAD) for 5 min on ice or 1 μg/ml propidium iodide (PI), and washed twice with ice-cold PBS. […]

For a further series, the system named is MCF10A. Description: Uptake of AS1411 by macropinocytosis (MP). Type of series: cell-based, human. As to conditions: Non-cancer, breast epithelial. The text has this:
It has recently been discovered that AS1411 can stimulate macropinocytosis (MP) in cancer cells and this finding was verified by several different methods and in multiple cancer cell lines (Table 1).

Another series has as its system several cell lines. Description: Annexin V / PI flow cytometry to assess cell death. Type of series: cell-based. As for the experimental part:
(A) Trypan blue staining of U937 leukemia cells showing percentage of dead cells (trypan blue positive) over time. (B) U937 cells were untreated (Un) or treated with 1 μM AS1411 (1411) or control oligonucleotide (Ctrl) for 72 h. DNA was extracted, electrophoresed on an agarose gel and stained with ethidium bromide to probe DNA laddering. As a positive control, […] were treated with UV irradiation to induce apoptosis as previously described. […] (D) U937 cells treated as described for panel B, followed by protein extraction and immunoblotting (IB) to detect PARP cleavage and Caspase-3 activation. (E) DU145 prostate cancer cells were incubated with 10 μM of AS1411 for 24 h, or irradiated with UV (300 J/m^2 with UV Stratalinker 2400, Strategene), then cultured in fresh medium for 6 h. Assessment of cell death was carried out by flow cytometry to detect Annexin V-FITC binding and PI staining.
(In general: Flow cytometry measures light scatter and fluorescence of single cells or particles in a stream.)

The test system of series [2] is DU145 cells. It counts as cell-based. As to conditions: 4 days, 10 μM AS1411. On the procedure: DU145 cells were incubated for 4 days in the presence of 10 μM AS1411 with 3-MA at the concentration indicated, and cell number was assessed by MTT assay.
It also appears unlikely that AS1411-induced cell death is due to autophagy. […] Further evidence that supports the idea that AS1411 can induce methuosis comes from the similarity between the appearance of cells treated with AS1411 and published images of glioblastoma cells undergoing Ras-induced methuosis.

The test system of series [3] is DU145 cells. Description: Uptake of fluorescently labeled duplex siRNA after AS1411 pre-treatment. It counts as cell-based. As to conditions: 10 μM, 48 h. The text has this: FIG. 18 is a graph showing the uptake of siRNA in the presence of AS1411.
Furthermore, due to the unique properties of MPsomes, delivery by MP leads to increased functional activity. Thus, treatment with AS1411, followed by administration of an anticancer siRNA, for example, leads to a synergistic increase in anticancer effects without harming normal cells. Another strategy to potentiate the effects of AS1411 is to combine it with agents that promote MP and activation of Rac. This leads to increased macropinocytic uptake of AS1411 and/or enhanced methuosis.

{Fluor} = fluorophore: 5-carboxyfluorescein (FAM) or Alexa Fluor 488

With “5′-Fluor-d(TTTCCTCCTCCTCCTTCTCCTCCTCCTCC) (DNA TTTCCTCCTCCTCCTTCTCCTCCTCCTCC; DNA, 5' {Fluor}, backbone and methylation of C not given here) [FL-CRO, reference compound]”, the “temperature dependence of uptake” value in series [1] is reported as “strong temperature dependence”.

As for “5′-d(GGTGGTGGTGGTTGTGGTGGTGGTGG) [AS1411]”, the “Update by MP?” value in the series with Hs27 is “No”; with MCF10A, “Low”. The “Annexin V / PI quadrant in which cells appear” value in the series on several cell lines is “Annexin V-positive/propidium iodide (PI)-positive quadrant (indicative of necrosis)”. For the same substance, the “effect in combination with 3-MA” value in the series on DU145 cells [2] is listed as “additive”. Moreover, the “siRNA delivery after pre-treatment” value in the series on DU145 cells [3] is reported as “substantial increase in siRNA delivery”.
